Values quoted from earlier work in patent US20070059354A1 (priority 2005, published 2007).

solubility in water: practically insoluble in water
SMILES: NC(=O)N1c2ccccc2CC(=O)c2ccccc21 [Oxcarbazepine]
